# Data as given in patent US5190741A, “Agents for diagnosing and treating melanomas, aromatic halogenated derivatives usable as such agents and their preparation” (Institut National de la Sante et de la Recherche Medicale …, priority 1989, dated 1993).
# Legend:
# [1] = test system: human and murine melanomas; test: Scintillation imaging in human and murine melanoma models (B16, B16 pulmonary metastases, Beu, Dau, FOSS(ORIS)); assay type: in vivo, human; mouse
# Description: The mice bearing grafted tumors are anesthetized by the i.p. injection of sodium pentobarbital 1/5 and immobilized under a scintillation camera (Gammatome II, CGR) equipped with a pinhole 3-360 collimator, sensitivity 3.2 10^-4. […] C57 BL6 bearing pulmonary metastases of B16 melanoma.
# [2] = test system: Dau amelanic human melanoma; test: Tissue distribution in Swiss nu/nu SSCUP mice bearing Dau; assay type: in vivo
# Experimental: The study of the tissue distribution of the ^125 I labelled compounds was performed in mice bearing grafted melanomas (cf. autoradiograms above). […] The animals are sacrificed at different time intervals of 1 to 24 hours after the injection. The blood is collected and the principal organs are excised. Aliquots are weighed and the radioactivity of the samples is measured in a […] 1191 counter (analytic tracer). The counting yield for iodine 125 is 60%. The results are expressed: as a percentage of the injected dose bound per g of tissue (% ID/g); in the form of the ratios [formula] This ratio reflects more precisely the selectivity of a molecule for an organ (tables 2, 4, 6, 8, 10 and 12).
structure (smiles),measurement,setting,value
"CCN(CC)CCNC(=O)c1ccc(I)cc1 [Derivative A, N-(2-diethylaminoethyl) 4-iodo benzamide]",tumoral definition in scintillation images,"[1]; ^125 I and ^123 I-A, i.v.",good tumoral definition
same,early images,[1]; considerable intraabdominal and pulmonary radioactivity,more difficult to interpret
same,quality of tumor images,[1]; from 4 h,good quality
same,intratumoral necrosis zones,[1]; in vivo,not visualized
same,size of human melanoma imaged,[1]; in vivo,less than 5 mm
"CCNCCNC(=O)c1ccc(I)cc1 [Derivative B, N-(2-ethylaminoethyl) 4-iodo benzamide]",intratumoral concentrations compared with A,"[2]; 4 to 6 h, Dau",slightly higher
same,brain/blood ratio,[2]; 1 h,"1,44 ± 0,069"
same,eye/blood ratio,[2]; 1 h,"0,57 ± 0,011"
same,intestine/blood ratio,[2]; 1 h,"3,44 ± 0,231"
same,kidney/blood ratio,[2]; 1 h,"9,10 ± 0,286"
same,liver/blood ratio,[2]; 1 h,"5,56 ± 0,225"
same,lungs/blood ratio,[2]; 1 h,"6 ± 0,353"
same,muscle/blood ratio,[2]; 1 h,"1,17 ± 0,040"
same,pancreas/blood ratio,[2]; 1 h,"3,20 ± 0,099"
same,plasma/blood ratio,[2]; 1 h,"0,80 ± 0,017"
same,spleen/blood ratio,[2]; 1 h,"2,84 ± 0,091"
same,stomach/blood ratio,[2]; 1 h,"2,66 ± 0,101"
same,submaxillary glands/blood ratio,[2]; 1 h,"4,82 ± 0,285"
same,tumor/blood ratio,[2]; 1 h,"1,33 ± 0,015"
same,brain/blood ratio,[2]; 2 h,"1,43 ± 0,261"
same,eye/blood ratio,[2]; 2 h,"0,55 ± 0,052"
same,intestine/blood ratio,[2]; 2 h,"2,87 ± 0,34"
same,kidney/blood ratio,[2]; 2 h,"7,00 ± 1,03"
same,liver/blood ratio,[2]; 2 h,"3,62 ± 0,68"
same,lungs/blood ratio,[2]; 2 h,"6,33 ± 1,166"
same,muscle/blood ratio,[2]; 2 h,"0,98 ± 0,182"
same,pancreas/blood ratio,[2]; 2 h,"2,42 ± 0,36"
same,plasma/blood ratio,[2]; 2 h,"0,89 ± 0,068"
same,spleen/blood ratio,[2]; 2 h,"2,31 ± 0,36"
same,stomach/blood ratio,[2]; 2 h,"3,40 ± 0,694"
same,submaxillary glands/blood ratio,[2]; 2 h,"4,48 ± 0,220"
same,tumor/blood ratio,[2]; 2 h,"1,39 ± 0,103"
same,brain/blood ratio,[2]; 4 h,"2,21 ± 0,304"
same,eye/blood ratio,[2]; 4 h,"0,71 ± 0,056"
same,intestine/blood ratio,[2]; 4 h,"4,08 ± 0,599"
same,kidney/blood ratio,[2]; 4 h,"8,03 ± 0,813"
same,liver/blood ratio,[2]; 4 h,"5,21 ± 0,519"
same,lungs/blood ratio,[2]; 4 h,"8,77 ± 0,838"
same,muscle/blood ratio,[2]; 4 h,"1,24 ± 0,153"
same,pancreas/blood ratio,[2]; 4 h,"2,70 ± 0,300"
same,plasma/blood ratio,[2]; 4 h,"0,94 ± 0,058"
same,spleen/blood ratio,[2]; 4 h,"2,07 ± 0,256"
same,stomach/blood ratio,[2]; 4 h,"4,34 ± 0,924"
same,submaxillary glands/blood ratio,[2]; 4 h,"5,44 ± 0,297"
same,tumor/blood ratio,[2]; 4 h,"2,68 ± 0,757"
same,brain/blood ratio,[2]; 6 h,"0,44 ± 0,060"
same,eye/blood ratio,[2]; 6 h,"0,36 ± 0,023"
same,intestine/blood ratio,[2]; 6 h,"1,97 ± 0,112"
same,kidney/blood ratio,[2]; 6 h,"2,01 ± 0,252"
same,liver/blood ratio,[2]; 6 h,"1,43 ± 0,439"
same,lungs/blood ratio,[2]; 6 h,"1,82 ± 0,187"
same,muscle/blood ratio,[2]; 6 h,"0,24 ± 0,056"
same,pancreas/blood ratio,[2]; 6 h,"0,76 ± 0,050"
same,plasma/blood ratio,[2]; 6 h,"1,16 ± 0,016"
same,spleen/blood ratio,[2]; 6 h,"0,62 ± 0,045"
same,stomach/blood ratio,[2]; 6 h,"3,78 ± 0,400"
same,submaxillary glands/blood ratio,[2]; 6 h,"5,16 ± 0,853"
same,tumor/blood ratio,[2]; 6 h,"0,65 ± 0,025"
same,brain/blood ratio,[2]; 8 h,"1,31 ± 0,180"
same,eye/blood ratio,[2]; 8 h,"0,60 ± 0,040"
same,intestine/blood ratio,[2]; 8 h,"3,30 ± 0,269"
same,kidney/blood ratio,[2]; 8 h,"3,72 ± 0,573"
same,liver/blood ratio,[2]; 8 h,"6,03 ± 0,678"
same,lungs/blood ratio,[2]; 8 h,"3,69 ± 0,585"
same,muscle/blood ratio,[2]; 8 h,"0,74 ± 0,216"
same,pancreas/blood ratio,[2]; 8 h,"1,22 ± 0,151"
same,plasma/blood ratio,[2]; 8 h,"0,19 ± 0,020"
same,spleen/blood ratio,[2]; 8 h,"1,28 ± 0,158"
same,stomach/blood ratio,[2]; 8 h,"5,35 ± 0,355"
same,submaxillary glands/blood ratio,[2]; 8 h,"3,65 ± 0,266"
same,tumor/blood ratio,[2]; 8 h,"1,17 ± 0,314"
same,brain/blood ratio,[2]; 12 h,"0,74 ± 0,072"
same,eye/blood ratio,[2]; 12 h,"0,88 ± 0,081"
same,intestine/blood ratio,[2]; 12 h,"3,20 ± 0,502"
same,kidney/blood ratio,[2]; 12 h,"5,46 ± 0,217"
same,liver/blood ratio,[2]; 12 h,"13,34 ± 0,462"
same,lungs/blood ratio,[2]; 12 h,"3,04 ± 0,401"
same,muscle/blood ratio,[2]; 12 h,"0,45 ± 0,111"
same,pancreas/blood ratio,[2]; 12 h,"5 ± 0,310"
same,plasma/blood ratio,[2]; 12 h,"0,16 ± 0,037"
same,spleen/blood ratio,[2]; 12 h,"3,68 ± 0,493"
same,stomach/blood ratio,[2]; 12 h,"7,03 ± 0,728"
same,submaxillary glands/blood ratio,[2]; 12 h,"2,52 ± 0,236"
same,tumor/blood ratio,[2]; 12 h,"1,11 ± 0,059"
same,brain/blood ratio,[2]; 24 h,"0,22 ± 0,029"
same,eye/blood ratio,[2]; 24 h,"0,94 ± 0,213"
same,intestine/blood ratio,[2]; 24 h,"1,16 ± 0,141"
same,kidney/blood ratio,[2]; 24 h,"4,64 ± 0,328"
same,liver/blood ratio,[2]; 24 h,"21,88 ± 1,493"
same,lungs/blood ratio,[2]; 24 h,"1,72 ± 0,182"
same,muscle/blood ratio,[2]; 24 h,"0,27 ± 0,043"
same,pancreas/blood ratio,[2]; 24 h,"1,40 ± 0,120"
same,plasma/blood ratio,[2]; 24 h,"1,07 ± 0,154"
same,spleen/blood ratio,[2]; 24 h,"11,17 ± 1,75"
same,stomach/blood ratio,[2]; 24 h,"2,28 ± 0,165"
same,submaxillary glands/blood ratio,[2]; 24 h,"1,81 ± 0,169"
same,tumor/blood ratio,[2]; 24 h,"0,79 ± 0,092"
same,tumor/blood ratios compared with A,[2]; Dau,not significantly different
